According to patent US9730940B2, “Purine inhibitors of human phosphatidylinositol 3-kinase delta” (priority 2012, dated 2017):

biological target: PI3K-alpha (Homo sapiens (Human), UniProt P42336); assay: HTRF PI3K biochemical assay, alpha isoform; conditions: ratio PI3K-alpha IC50 value/PI3K-delta IC50 value
Sequence (P42336 whole entry, looked up, canonical isoform): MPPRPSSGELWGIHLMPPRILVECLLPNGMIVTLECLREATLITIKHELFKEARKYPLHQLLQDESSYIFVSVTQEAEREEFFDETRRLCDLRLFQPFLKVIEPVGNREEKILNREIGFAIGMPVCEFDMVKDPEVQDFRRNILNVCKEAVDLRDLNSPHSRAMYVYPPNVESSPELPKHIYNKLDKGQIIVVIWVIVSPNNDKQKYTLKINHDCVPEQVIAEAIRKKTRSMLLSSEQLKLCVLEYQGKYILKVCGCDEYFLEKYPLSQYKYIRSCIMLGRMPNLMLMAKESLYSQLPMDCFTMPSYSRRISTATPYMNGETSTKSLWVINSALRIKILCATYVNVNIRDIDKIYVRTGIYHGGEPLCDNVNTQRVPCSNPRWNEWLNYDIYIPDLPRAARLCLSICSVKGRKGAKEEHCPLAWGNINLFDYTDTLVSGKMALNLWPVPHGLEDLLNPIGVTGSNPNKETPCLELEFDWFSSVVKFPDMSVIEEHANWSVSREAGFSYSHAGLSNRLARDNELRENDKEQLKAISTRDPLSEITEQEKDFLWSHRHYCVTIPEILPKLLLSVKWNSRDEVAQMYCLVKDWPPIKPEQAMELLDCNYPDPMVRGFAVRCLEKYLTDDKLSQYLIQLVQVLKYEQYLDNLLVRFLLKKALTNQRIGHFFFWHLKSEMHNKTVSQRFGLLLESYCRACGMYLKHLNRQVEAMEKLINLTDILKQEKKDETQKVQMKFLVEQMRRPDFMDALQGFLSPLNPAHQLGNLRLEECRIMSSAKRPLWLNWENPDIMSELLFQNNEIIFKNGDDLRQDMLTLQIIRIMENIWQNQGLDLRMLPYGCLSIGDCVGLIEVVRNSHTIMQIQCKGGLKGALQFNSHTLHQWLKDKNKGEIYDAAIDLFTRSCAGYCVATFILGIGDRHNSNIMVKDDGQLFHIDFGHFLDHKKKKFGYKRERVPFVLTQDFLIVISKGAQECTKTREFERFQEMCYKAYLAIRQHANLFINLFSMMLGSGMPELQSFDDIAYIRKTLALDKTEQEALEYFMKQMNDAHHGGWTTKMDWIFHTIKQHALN
Sequence (P27986 whole entry partner, looked up, canonical isoform): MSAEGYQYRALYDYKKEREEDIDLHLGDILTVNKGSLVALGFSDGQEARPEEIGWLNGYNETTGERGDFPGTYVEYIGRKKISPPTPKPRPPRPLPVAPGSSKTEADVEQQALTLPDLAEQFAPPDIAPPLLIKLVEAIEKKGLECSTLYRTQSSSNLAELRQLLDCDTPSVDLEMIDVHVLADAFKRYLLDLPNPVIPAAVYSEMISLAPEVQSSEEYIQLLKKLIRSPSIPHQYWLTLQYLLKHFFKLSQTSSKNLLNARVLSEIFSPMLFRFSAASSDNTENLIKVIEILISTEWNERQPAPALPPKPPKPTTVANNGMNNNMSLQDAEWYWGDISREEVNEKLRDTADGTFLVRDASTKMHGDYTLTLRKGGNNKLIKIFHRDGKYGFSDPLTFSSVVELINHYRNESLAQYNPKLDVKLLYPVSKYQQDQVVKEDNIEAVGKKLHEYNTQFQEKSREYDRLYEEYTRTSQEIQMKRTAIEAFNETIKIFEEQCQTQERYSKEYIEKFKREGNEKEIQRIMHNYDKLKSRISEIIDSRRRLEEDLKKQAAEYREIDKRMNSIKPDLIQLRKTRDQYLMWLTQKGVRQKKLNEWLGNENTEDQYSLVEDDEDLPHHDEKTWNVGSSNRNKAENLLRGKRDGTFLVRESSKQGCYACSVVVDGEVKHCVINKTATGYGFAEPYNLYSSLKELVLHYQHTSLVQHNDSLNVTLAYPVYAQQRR

SMILES	Relative Selectivity versus PI3Kalpha
CCC(=O)N1CC[C@H](Oc2ncnc3c2nc(-c2cnn4c2CCC4)n3C)C1 [Compound 3-22, 8-(5,6-dihydro-4H-pyrrolo[1,2-b]pyrazol-3-yl)-9-methyl-6-{[(3S)-1-propanoylpyrrolidin-3-yl]oxy}-9H-purine]	>10
CCn1c(-c2cnn(-c3ccccc3)c2C)nc2c(O[C@H]3CCN(C(=O)C4CC4)C3)ncnc21 [Compound 3-23, 6-{[(3S)-1-(cyclopropylcarbonyl)pyrrolidin-3-yl]oxy}-9-ethyl-8-(5-methyl-1-phenyl-1H-pyrazol-4-yl)-9H-purine]	>10
CCn1c(-c2ccc(OC)c(F)c2)nc2c(O[C@H]3CCN(C(=O)C4CC4)C3)ncnc21 [Compound 3-24, 6-{[(3S)-1-(cyclopropylcarbonyl)pyrrolidin-3-yl]oxy}-9-ethyl-8-(3-fluoro-4-methoxyphenyl)-9H-purine]	>10
CCn1c(-c2cnc3[nH]ccc3c2)nc2c(O[C@H]3CCN(C(=O)C4CC4)C3)ncnc21 [Compound 3-25, 6-{[(3S)-1-(cyclopropylcarbonyl)pyrrolidin-3-yl]oxy}-9-ethyl-8-(1H-pyrrolo[2,3-b]pyridin-5-yl)-9H-purine]	>10
CCn1c(-c2cnc(OC)c(C(F)(F)F)c2)nc2c(O[C@H]3CCN(C(=O)C4CC4)C3)ncnc21 [Compound 3-26, 5-{[(3S)-1-(cyclopropylcarbonyl)pyrrolidin-3-yl]oxy}-9-ethyl-8-[6-methoxy-5-(trifluoromethyl)pyridin-3-yl]-9H-purine]	>10
CCn1c(-c2cnc(OC)nc2)nc2c(O[C@H]3CCN(C(=O)C4CC4)C3)ncnc21 [Compound 3-27, 6-{[(3S)-1-(cyclopropylcarbonyl)pyrrolidin-3-yl]oxy}-9-ethyl-8-(2-methoxypyrimidin-5-yl)-9H-purine]	>10
CCn1c(-c2cnc(OC)c(Cl)c2)nc2c(O[C@H]3CCN(C(=O)C4CC4)C3)ncnc21 [Compound 3-28, 8-(5-chloro-6-methoxypyridin-3-yl)-6-{[(3S)-1-(cyclopropylcarbonyl)pyrrolidin-3-yl]oxy}-9-ethyl-9H-purine]	>10
CCn1c(-c2cnc(C)nc2C)nc2c(O[C@H]3CCN(C(=O)C4CC4)C3)ncnc21 [Compound 3-29, 6-{[(3S)-1-(cyclopropylcarbonyl)pyrrolidin-3-yl]oxy}-8-(2,4-dimethylpyrimidin-5-yl)-9-ethyl-9H-purine]	>10
CCn1c(-c2cnc(C)c(F)c2)nc2c(O[C@H]3CCN(C(=O)C4CC4)C3)ncnc21 [Compound 3-30, 6-{[(3S)-1-(cyclopropylcarbonyl)pyrrolidin-3-yl]oxy}-9-ethyl-8-(5-fluoro-6-methylpyridin-3-yl)-9H-purine]	>10
CCC(=O)N1CC[C@H](Oc2ncnc3c2nc(I)n3C)C1 [Compound 3-31, 8-iodo-9-methyl-6-{[(3S)-1-propanoylpyrrolidin-3-yl]oxy}-9H-purine]	>10
CCC(=O)N1CC[C@H](Oc2ncnc3c2nc(-c2ccc(OC)c(F)c2)n3C)C1 [Compound 3-32, 8-(3-fluoro-4-methoxyphenyl)-9-methyl-5-{[(3S)-1-propanoylpyrrolidin-3-yl]oxy}-9H-purine]	>10
CCC(=O)N1CC[C@H](Oc2ncnc3c2nc(-c2ccc(OC)nc2)n3C)C1 [Compound 3-33, 8-(6-methoxypyridin-3-yl)-9-methyl-6-{[(3S)-1-propanoylpyrrolidin-3-yl]oxy}-9H-purine]	>10
CCC(=O)N1CC[C@H](Oc2ncnc3c2nc(-c2cnc(OC)c(F)c2)n3C)C1 [Compound 3-34, 8-(5-fluoro-6-methoxypyridin-3-yl)-9-methyl-6-{[(3S)-1-propanoylpyrrolidin-3-yl]oxy}-9H-purine]	>10
CCC(=O)N1CC[C@H](Oc2ncnc3c2nc(-c2ccc(OC)c(C(F)(F)F)c2)n3C)C1 [Compound 3-35, 8-[4-methoxy-3-(trifluoromethyl)phenyl]-9-methyl-6-{[(3S)-1-propanoylpyrrolidin-3-yl]oxy}-9H-purine]	>10
CCC(=O)N1CC[C@H](Oc2ncnc3c2nc(-c2ccc(OC)c(C)c2)n3C)C1 [Compound 3-36, 8-(4-methoxy-3-methylphenyl)-9-methyl-6-{[(3S)-1-propanoylpyrrolidin-3-yl]oxy}-9H-purine]	>10
CCC(=O)N1CC[C@H](Oc2ncnc3c2nc(-c2cnc(OC)c(C#N)c2)n3C)C1 [Compound 3-37, 2-methoxy-5-(9-methyl-6-{[(3S)-1-propanoylpyrrolidin-3-yl]oxy}-9H-purin-8-yl)pyridine-3-carbonitrile]	>10
CCC(=O)N1CC[C@H](Oc2ncnc3c2nc(-c2cnc(OC)c(NS(C)(=O)=O)c2)n3C)C1 [Compound 3-38, N-[2-methoxy-5-(9-methyl-6-{[(3S)-1-propanoylpyrrolidin-3-yl]oxy}-9H-purin-8-yl)pyridin-3-yl]methanesulfonamide]	>10

SMILES	Relative Selectivity versus PI3Kalpha
CCC(=O)N1CC[C@H](Oc2ncnc3c2nc(-c2ccc(S(C)(=O)=O)cc2)n3C)C1 [Compound 3-39, 9-methyl-8-[4-(methyslulfonyl)phenyl]-6-{[(3S)-1-propanoylpyrrolidin-3-yl]oxy}-9H-purine]	>10
CCC(=O)N1CC[C@H](Oc2ncnc3c2nc(-c2cnn4c2CCCC4)n3C)C1 [Compound 3-40, 9-methyl-6-{[(3S)-1-propanoylpyrrolidin-3-yl]oxy}-8-(4,5,6,7-tetrahydropyrazolo[1,5-a]pyridin-3-yl)-9H-purine]	>10
CCn1c(-c2cnc(OC)c(NS(C)(=O)=O)c2)nc2c(O[C@H]3CCN(C(=O)C4CC4)C3)ncnc21 [Compound 3-41, N-[5-(6-{[(3S)-1-(cyclopropylcarbonyl)pyrrolidin-3-yl]oxy}-9-ethyl-9H-purin-8-yl)-2-methoxypyridin-3-yl]methanesulfonamide]	>10
CCn1c(-c2cnc(OC)c(C#N)c2)nc2c(O[C@H]3CCN(C(=O)C4CC4)C3)ncnc21 [Compound 3-42, 5-(6-{[(3S)-1-(cyclopropylcarbonyl)pyrrolidin-3-yl]oxy}-9-ethyl-9H-purin-8-yl)-2-methoxypyridine-3-carbonitrile]	>10
CCn1c(-c2cnc(C(F)(F)F)nc2)nc2c(O[C@H]3CCN(C(=O)C4CC4)C3)ncnc21 [Compound 3-43, 6-{[(3S)-1-(cyclopropylcarbonyl)pyrrolidin-3-yl]oxy}-9-ethyl-8-[2-(trifluoromethyl)pyrimidin-5-yl]-9H-purine]	>10
CCn1c(-c2cnc(N)c(C(F)(F)F)c2)nc2c(O[C@H]3CCN(C(=O)C4CC4)C3)ncnc21 [Compound 3-44, 5-(6-{[(3S)-1-(cyclopropylcarbonyl)pyrrolidin-3-yl]oxy}-9-ethyl-9H-purin-8-yl)-3-(trifluoromethyl)pyridin-2-amine]	>10
CCn1c(-c2cnc(N(C)C)nc2)nc2c(O[C@H]3CCN(C(=O)C4CC4)C3)ncnc21 [Compound 3-45, 5-(6-{[(3S)-1-(cyclopropylcarbonyl)pyrrolidin-3-yl]oxy}-9-ethyl-9H-purin-8-yl)-N,N-dimethylpyrimidin-2-amine]	>10
CCC1CN(C(=O)C2CC2)CC1Oc1ncnc2c1nc(-c1cnc(C)nc1)n2CC (stereo not drawn) [Compound 3-46, [3R,4S and 3S,4R]-6-{[1-(cyclopropylcarbonyl)-4-ethylpyrrolidin-3-yl]oxy}-9-ethyl-8-(2-methylpyrimidin-5-yl)-9H-purine]	>10
CCn1c(-c2ccc(OC)cn2)nc2c(O[C@H]3CCN(C(=O)C4CC4)C3)ncnc21 [Compound 3-48, 6-{[(3S)-1-(cyclopropylcarbonyl)pyrrolidin-3-yl]oxy}-9-ethyl-8-(5-methoxypyridin-2-yl)-9H-purine]	>10
CCn1c(-c2cnc(OC)c(C)c2)nc2c(O[C@H]3CCN(C(=O)C4CC4)C3)ncnc21 [Compound 3-49, 6-{[(3S)-1-(cyclopropylcarbonyl)pyrrolidin-3-yl]oxy}-9-ethyl-8-(6-methoxy-5-methylpyridin-3-yl)-9H-purine]	>10
CCn1c(-c2ccc(OC)nc2)nc2c(O[C@H]3CCN(C(=O)C(C)C)C3)ncnc21 [Compound 3-50, 9-ethyl-8-(6-methoxypyridin-3-yl)-6-{[(3S)-1-(2-methylpropanoyl)pyrrolidin-3-yl]oxy}-9H-purine]	>10
CCn1c(-c2ccc(OC)nc2)nc2c(O[C@H]3CCN(C(=O)C4CC(F)(F)C4)C3)ncnc21 [Compound 3-51, 6-({(3S)-1-[(3,3-difluorocyclobutyl)carbonyl]pyr-rolidin-3-yl}oxy)-9-ethyl-8-(6-methoxypyridin-3-yl)-9H-purine]	>10
CCn1c(-c2ccc(OC)nc2)nc2c(O[C@H]3CCN(C(=O)C4CCOCC4)C3)ncnc21 [Compound 3-52, 9-ethyl-8-(6-methoxypyridin-3-yl)-6-{[(3S)-1-(tetrahydro-2H-pyran-4-ylcarbonyl)pyrrolidin-3-yl]oxy}-9H-purine]	>10
CCn1c(-c2cnc(OC)c(F)c2)nc2c(O[C@H]3CCN(C(=O)C4CC4)C3)ncnc21 [Compound 3-53, 6-{[(3S)-1-(cyclopropylcarbonyl)pyrrolidin-3-yl]oxy}-9-ethyl-8-(5-fluoro-6-methoxypyridin-3-yl)-9H-purine]	>10
CCn1c(-c2cnc(OC)c(F)c2)nc2c(O[C@H]3CCN(C(=O)C(C)C)C3)ncnc21 [Compound 3-54, 9-ethyl-8-(5-fluoro-6-methoxypyridin-3-yl)-6-{[(3S)-1-(2-methylpropanoyl)pyrrolidin-3-yl]oxy}-9H-purine]	>10
CCn1c(-c2cnc(OC)c(F)c2)nc2c(O[C@H]3CCN(C(=O)C4CC(F)(F)C4)C3)ncnc21 [Compound 3-55, 6-({(3S)-1-[(3,3-difluorocyclobutyl)carbonyl]pyr-rolidin-3-yl}oxy)-9-ethyl-8-(5-fluoro-6-methoxypyridin-3-yl)-9H-purine]	>10
